US20250281413A1, “PHARMACEUTICAL COMPOSITION” (Novartis AG, priority 2021, published 2025)
≈ marks a conversion by molar mass, not a printed value.

What was measured:
Type in all cases: physicochemical
[1] = Dissolution rate of capsules filled with granule particles (paddle 50 rpm); conditions: pH 3, 50 mg dose in 900 mL
Method: Variant P7 was selected as the optimized granule composition in terms of copovidone and SLS ratio, thus the amount to be sprayed on the inert substrate (carrier particle) allow a drug load of 20%, based on the total weight of the granule particle, in a reasonable processing time. The dissolution performance of the different variant of granule particle compositions was evaluated to ensure the dissolution profile was in a good range. The dissolution rate is measured by conventional method (paddle method according to Pharm. Eur. 2.9.3 “Dissolution Test for Solid Dosage Forms” or US Pharmacopeia <711> “Dissolution” or Japanese Pharmacopiea <6.10> “Dissolution Test), as it can be seen in FIG. 1 and FIG. 2, by adding the granule particles prepared as mentioned in Table 1 into capsules (e.g. hard gelatin capsule). […] Some of the tested capsules comprising the above mentioned granule particles, the disintegration and dispersion of the content was delayed, leading to a delayed dissolution rate (DR) profile at paddle 50 rpm. […]
In order to have a better understanding of the formulation/pH profile, the dissolution rate profiles of the formulations described in Table 2 and Table 3 were measured at pH 2, pH 3, pH 4.5 and pH 6.8. […]

[2] = Particle size of wet-media milled suspension by Photon Correlation Spectroscopy (PCS); conditions: Example 7
From the text: The following examples illustrate the invention and provide support for the disclosure of the present invention without limiting the scope of the invention. • Analytical Centrifugation (AC), e.g., LUMiSizer, LUM GmbH Germany, SEPView 6.1.2570.2022. Wet dispersion method using purified water solution for dilution of suspension to appropriate attenuation level with about 10 to 70% transmission of first measurement profile. The reported results for X10, X50, X90 are intensity weighted. • Photon Correlation Spectroscopy (PCS), e.g., Zetasizer Nano ZS, Malver Panalytical Ltd., UK, Version 7.3. Wet dispersion method using 0.1 mM NaCl solution (in purified water) for dilution of suspension to appropriate attenuation level with about 2 to 9 attenuator index. The reported results for Xmean are intensity weighted. In particular, the attenuator index is 5. Preferably, the measurement is carried at 25° C. […]

[3] = pH dependent solubility of Compound (A)

With C=CC(=O)N(C)CCOc1c(N)ncnc1-c1cc(F)cc(NC(=O)c2ccc(C3CC3)cc2F)c1C [Compound (A), N-(3-(6-amino-5-(2-(N-methylacrylamido)ethoxy)pyrimidin-4-yl)-5-fluoro-2-methylphenyl)-4-cyclopropyl-2-fluorobenzamide] the “percent of dose dissolved at plateau” value [1] was 90%, the “particle size of the DS in wet media milled before dilution for spray granulation” value [2] was 123 nm and the “Biopharmaceutics classification system Class” value [3] was “Class 2”. For the same compound, the solubility ([3]; pH 1.2, simulated gastric fluid) was 3000 µg/mL (≈ 5910 µM), the solubility ([3]; pH 2, simulated gastric fluid) was 300 µg/mL (≈ 591 µM) and the solubility ([3]; pH 3, aqueous buffer) was 3 µg/mL (≈ 5.91 µM).
